Measurements: PubChem BioAssay AID248 (DTP/NCI, 2004)
Values joined by “and” are separate entries in the source; they are usually repeats but may differ in a detail not shown here. Equal values may be shown once. Toxic doses and inconclusive results are not listed.

Test system: L1210 leukemia ip in BDF1 mice, survival T/C
Test: NCI In Vivo Anticancer Drug Screen. Data for tumor model L1210 Leukemia (intraperitoneal) in B6D2F1 (BDF1) mice
Settings: endpoint: mean survival time, higher = longer survival
Procedure, shortened: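 Antitumor effect is assessed in tumor-bearing animals. Survival in the compound arm is compared with a vehicle-dosed control arm and expressed as their quotient.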

[1] = dose: 100.0 mg/kg/injection, schedule: Q01DX001 (ip), vehicle: Klucel (hydroxypropylcellulose) (HPC)
[2] = dose: 100.0 mg/kg/injection, schedule: Q01DX009 (ip), vehicle: Klucel (hydroxypropylcellulose) (HPC)
[3] = dose: 200.0 mg/kg/injection, schedule: Q01DX009 (ip), vehicle: Klucel (hydroxypropylcellulose) (HPC)
[4] = dose: 400.0 mg/kg/injection, schedule: Q01DX009 (ip), vehicle: Klucel (hydroxypropylcellulose) (HPC)
[5] = dose: 75.0 mg/kg/injection, schedule: Q01DX009 (ip), vehicle: Klucel (hydroxypropylcellulose) (HPC)
[6] = dose: 150.0 mg/kg/injection, schedule: Q01DX009 (ip), vehicle: Klucel (hydroxypropylcellulose) (HPC)
[7] = dose: 100.0 mg/kg/injection, schedule: Q01DX009 (ip), vehicle: saline with Tween-80
[8] = dose: 200.0 mg/kg/injection, schedule: Q01DX009 (ip), vehicle: saline with Tween-80
[9] = dose: 200.0 mg/kg/injection, schedule: Q01DX001 (ip), vehicle: Klucel (hydroxypropylcellulose) (HPC)
[10] = dose: 400.0 mg/kg/injection, schedule: Q01DX001 (ip), vehicle: Klucel (hydroxypropylcellulose) (HPC)
[11] = dose: 100.0 mg/kg/injection, schedule: Q01DX009 (ip), vehicle: saline
[12] = dose: 200.0 mg/kg/injection, schedule: Q01DX009 (ip), vehicle: saline

## CC[C@@]1(O)C(=O)OCc2c1cc1n(c2=O)Cc2cc3cc(OC)ccc3nc2-1
dose: 0.36 mg/kg/injection, schedule: Q01DX001 (ip), vehicle: saline
  T/C: 114 % of control
dose: 0.55 mg/kg/injection, schedule: Q01DX001 (ip), vehicle: saline
  T/C: 122 % of control
dose: 0.83 mg/kg/injection, schedule: Q01DX001 (ip), vehicle: saline
  T/C: 120 % of control
dose: 0.97 mg/kg/injection, schedule: Q01DX009 (ip), vehicle: saline
  T/C: 203 % of control
dose: 1.4 mg/kg/injection, schedule: Q01DX009 (ip), vehicle: saline
  T/C: 225 % of control
dose: 2.2 mg/kg/injection, schedule: Q01DX009 (ip), vehicle: saline
  T/C: 97 % of control
dose: 2.5 mg/kg/injection, schedule: Q01DX001 (ip), vehicle: saline
  T/C: 162 % of control
dose: 4.4 mg/kg/injection, schedule: Q01DX001 (ip), vehicle: saline
  T/C: 160 % of control
dose: 5.0 mg/kg/injection, schedule: Q01DX001 (ip), vehicle: saline
  T/C: 176 % of control
dose: 6.6 mg/kg/injection, schedule: Q01DX001 (ip), vehicle: saline
  T/C: 178 % of control
dose: 10.0 mg/kg/injection, schedule: Q01DX001 (ip), vehicle: saline
  T/C: 172 % of control and 250 % of control
dose: 15.0 mg/kg/injection, schedule: Q01DX001 (ip), vehicle: saline
  T/C: 122 % of control
dose: 20.0 mg/kg/injection, schedule: Q01DX001 (ip), vehicle: saline
  T/C: 112 % of control
dose: 36.0 micrograms/kg/injection, schedule: Q01DX009 (ip), vehicle: saline
  T/C: 95 % of control
dose: 56.0 micrograms/kg/injection, schedule: Q01DX009 (ip), vehicle: saline
  T/C: 104 % of control
dose: 84.0 micrograms/kg/injection, schedule: Q01DX009 (ip), vehicle: saline
  T/C: 115 % of control
dose: 127.0 micrograms/kg/injection, schedule: Q01DX009 (ip), vehicle: saline
  T/C: 121 % of control
dose: 287.0 micrograms/kg/injection, schedule: Q01DX009 (ip), vehicle: saline
  T/C: 123 % of control
dose: 430.0 micrograms/kg/injection, schedule: Q01DX009 (ip), vehicle: saline
  T/C: 117 % of control
dose: 646.0 micrograms/kg/injection, schedule: Q01DX009 (ip), vehicle: saline
  T/C: 150 % of control

## C=CCSCCC=O
dose: 25.0 mg/kg/injection, schedule: Q01DX001 (ip), vehicle: Klucel (hydroxypropylcellulose) (HPC)
  T/C: 100 % of control
dose: 50.0 mg/kg/injection, schedule: Q01DX001 (ip), vehicle: Klucel (hydroxypropylcellulose) (HPC)
  T/C: 102 % of control
[1]
  T/C: 102 % of control

## Cc1ccc(NC(=O)CCC(=O)O)cc1Cl
[2]
  T/C: 102 % of control
[3]
  T/C: 92 % of control
[4]
  T/C: 89 % of control

## CCCC#C/C=C1/C=CC(=O)O1
dose: 75.0 mg/kg/injection, schedule: Q01DX001 (ip), vehicle: carboxymethylcellulose (CMC)
  T/C: 94 % of control
dose: 150.0 mg/kg/injection, schedule: Q01DX001 (ip), vehicle: carboxymethylcellulose (CMC)
  T/C: 97 % of control

## CCCCCC/C=C/C#CCCCCCCCC(=O)O
dose: 37.5 mg/kg/injection, schedule: Q01DX009 (ip), vehicle: Klucel (hydroxypropylcellulose) (HPC)
  T/C: 105 % of control
[5]
  T/C: 98 % of control
[6]
  T/C: 102 % of control

## O=COC1CC2CC1C1CCCC21 (centres undefined)
dose: 100.0 mg/kg/injection, schedule: Q04DX003 (ip), vehicle: saline with Tween-80
  T/C: 94 % of control
dose: 200.0 mg/kg/injection, schedule: Q04DX003 (ip), vehicle: saline with Tween-80
  T/C: 92 % of control

## CC(=O)Nc1ccc(NC(=O)Nc2cccc(C(F)(F)F)c2)cc1
[2]
  T/C: 94 % of control
[3]
  T/C: 87 % of control

## CN(C)c1ccc2c(c1)oc(=O)c1ccccc12
dose: 50.0 mg/kg/injection, schedule: Q01DX001 (ip), vehicle: carboxymethylcellulose (CMC)
  T/C: 93 % of control
dose: 100.0 mg/kg/injection, schedule: Q01DX001 (ip), vehicle: carboxymethylcellulose (CMC)
  T/C: 104 % of control
dose: 200.0 mg/kg/injection, schedule: Q01DX001 (ip), vehicle: carboxymethylcellulose (CMC)
  T/C: 112 % of control
dose: 400.0 mg/kg/injection, schedule: Q01DX001 (ip), vehicle: carboxymethylcellulose (CMC)
  T/C: 91 % of control

## CN(C)CCCNC(=O)Nc1ccccc1
[2]
  T/C: 100 % of control
dose: 100.0 mg/kg/injection, schedule: Q04DX003 (ip), vehicle: Klucel (hydroxypropylcellulose) (HPC)
  T/C: 120 % of control
[3]
  T/C: 98 % of control
dose: 200.0 mg/kg/injection, schedule: Q04DX003 (ip), vehicle: Klucel (hydroxypropylcellulose) (HPC)
  T/C: 93 % of control

## c1ccc([Si](OO[Si](c2ccccc2)(c2ccccc2)c2ccccc2)(c2ccccc2)c2ccccc2)cc1
[7]
  T/C: 86 % of control
[8]
  T/C: 87 % of control

## O=C(O)C1CCCN1C(=O)Cc1ccc2c(c1)OCO2 (centres undefined)
[5]
  T/C: 96 % of control
[1]
  T/C: 98 % of control
[6]
  T/C: 93 % of control
[9]
  T/C: 95 % of control
dose: 300.0 mg/kg/injection, schedule: Q01DX009 (ip), vehicle: Klucel (hydroxypropylcellulose) (HPC)
  T/C: 98 % of control
[10]
  T/C: 92 % of control

## C[NH-].C[NH-].[I][Pt+2][I]
dose: 12.0 mg/kg/injection, schedule: Q04DX003 (ip), vehicle: other
  T/C: 118 % of control
dose: 17.0 mg/kg/injection, schedule: Q04DX003 (ip), vehicle: other
  T/C: 113 % of control
dose: 18.0 mg/kg/injection, schedule: Q04DX003 (ip), vehicle: water
  T/C: 102 % of control
dose: 25.0 mg/kg/injection, schedule: Q04DX003 (ip), vehicle: other
  T/C: 108 % of control
dose: 25.0 mg/kg/injection, schedule: Q04DX003 (ip), vehicle: water
  T/C: 102 % of control
dose: 37.0 mg/kg/injection, schedule: Q04DX003 (ip), vehicle: other
  T/C: 111 % of control
dose: 37.0 mg/kg/injection, schedule: Q04DX003 (ip), vehicle: water
  T/C: 115 % of control
dose: 44.0 mg/kg/injection, schedule: Q01DX001 (ip), vehicle: other
  T/C: 113 % of control
dose: 50.0 mg/kg/injection, schedule: Q04DX003 (ip), vehicle: other
  T/C: 110 % of control
dose: 67.0 mg/kg/injection, schedule: Q01DX001 (ip), vehicle: other
  T/C: 114 % of control
dose: 100.0 mg/kg/injection, schedule: Q01DX001 (ip), vehicle: other
  T/C: 120 % of control

## CC(C)(C)N1CCCC1
dose: 25.0 mg/kg/injection, schedule: Q01DX009 (ip), vehicle: saline with Tween-80
  T/C: 96 % of control
dose: 50.0 mg/kg/injection, schedule: Q01DX009 (ip), vehicle: saline with Tween-80
  T/C: 91 % of control
[7]
  T/C: 88 % of control

## Cc1ccc(S(=O)(=O)Oc2cc([N+](=O)[O-])ccc2N)cc1
[11]
  T/C: 103 % of control
[12]
  T/C: 105 % of control
dose: 400.0 mg/kg/injection, schedule: Q01DX009 (ip), vehicle: saline
  T/C: 100 % of control

## C(=N\Nc1nnc(N/N=C/C2CCCCC2)c2ccccc12)/C1CCCCC1
dose: 50.0 mg/kg/injection, schedule: Q01DX001 (ip), vehicle: saline
  T/C: 100 % of control

## CC(CN1CCOCC1)O[Si](C)(C)C (centres undefined)
dose: 50.0 mg/kg/injection, schedule: Q01DX009 (ip), vehicle: saline
  T/C: 92 % of control
[11]
  T/C: 96 % of control
[12]
  T/C: 96 % of control

## CC(=O)Nc1ccc(S(=O)(=O)Nc2cc(Cl)ccc2Cl)cc1
[7]
  T/C: 103 % of control
[8]
  T/C: 102 % of control
dose: 400.0 mg/kg/injection, schedule: Q01DX009 (ip), vehicle: saline with Tween-80
  T/C: 97 % of control

## c1ccc(C2(c3ccccc3)c3ccc([nH]3)C(c3ccccc3)(c3ccccc3)c3ccc([nH]3)C(c3ccccc3)(c3ccccc3)c3ccc([nH]3)C(c3ccccc3)(c3ccccc3)c3ccc2[nH]3)cc1
dose: 100.0 mg/kg/injection, schedule: Q01DX001 (ip), vehicle: saline
  T/C: 97 % of control
dose: 200.0 mg/kg/injection, schedule: Q01DX001 (ip), vehicle: saline
  T/C: 100 % of control
dose: 400.0 mg/kg/injection, schedule: Q01DX001 (ip), vehicle: saline
  T/C: 100 % of control

## CCCCCCCCCOc1ccc(C=O)cc1OC
[1]
  T/C: 93 % of control
[9]
  T/C: 102 % of control
[10]
  T/C: 100 % of control

## CC(C)C[As](=O)(O)CC(C)C
dose: 25.0 mg/kg/injection, schedule: Q04DX003 (ip), vehicle: saline
  T/C: 104 % of control
dose: 50.0 mg/kg/injection, schedule: Q04DX003 (ip), vehicle: saline
  T/C: 109 % of control

## O=C(CCBr)Nc1ccc(Cl)cc1C(=O)c1ccccc1
[2]
  T/C: 102 % of control
[3]
  T/C: 97 % of control
[4]
  T/C: 100 % of control

## COc1ccc(C(=O)Nc2ccccc2)cc1NC(=O)Nc1ccccc1C(F)(F)F
[2]
  T/C: 92 % of control
[3]
  T/C: 101 % of control
[4]
  T/C: 95 % of control
